Measurements reported in patent EP1173217B1, “ENHANCED DELIVERY OF NUCLEIC ACID-BASED DRUGS” (Merrion Research I Limited, priority 1999, dated 2000).
Read-outs that look alike come from different tables or passages of the source.

Legend:
Caco-2 cells = conditions: cationic lipid (lipofectamine): plasmid DNA complex alone set at 100%; β-galactosidase 24 hours post transfection; enhancer concentration not given in the sentence (C8 30 or 5mM, C10 5 or 1mM tested)
[1] = test system: non-differentiated Caco-2 cells
Experimental: Caco-2 cells were seeded on coverslips treated with polylysine at a concentration of approximately 2.5 - 5x10^5 cells/ml and grown to confluence. Cells were washed once with PBS without Ca^2+, Mg^2+. 1-2 ml of PBS w/o Ca^2+, Mg^2+ containing antisense oligonucleotides +/- enhancers was added and cells were incubated for 30 min at 37°C. Variations to this protocol by pre-incubating cells with enhancers (40min), washing with PBS w/o Ca^2+, Mg^2+ and then incubating with antisense oligonucleotides for 30min were also analysed.
Two different FITC labelled antisense oligonucleotides were used: FITC-labelled ELNG05 (5'-[…]-3'; complementary to a sequence in the human BCR-Abl mRNA) and FITC-labelled S-PTH-05 (5'-[…]-3', complementary to sequence 153-170 of the human HPT1 receptor mRNA). […] The uptake of antisense oligonucleotides was also analysed in the absence of enhancers for variable periods of time (30min - 60min). Following incubation, cells were washed twice with PBS w/o Ca^2+, Mg^2+ and stained with 1µg/ml TexasRed-DHPE (dihexadecanoylglycerophosphoethanolamine, Molecular Probe T-1395) for 15min at 37°C, washed extensively and fixed with paraformaldeyde pH shift (Barcallo, 1995) and mounted for analysis by confocal laser scanning microscopy (CLSM).
After two washes with PBS w/o Ca^2+ and Mg^2+, the cells were incubated with 2ml of FITC-antisense oligonucleotide (ELNG05) at a concentration of 10µM in PBS w/o Ca^2+ and Mg^2+ and incubated at 37°C for 30min.
Caco-2 cells were incubated with 1ml of antisense +/- enhancers in PBS w/o Ca^2+ and Mg^2+ and incubated for 30min at 37°C. Two different fluorescently labelled antisense oligonucleotides were used in these experiments at a concentration of 10µM: ELNG05 (antisense to BCR-Ab1) and S-PTH-05 (antisense to HPT1 receptor). […] The uptake of antisense was also analysed in the absence of enhancers for 30min and 60min as control.

With `CCCCCCCCCC(=O)[O-].[Na+]` [C10, sodium caprate] the efficiency of transfection (Caco-2 cells) was 245%, the “cell permeation / intracellular staining with TexasRed-DHPE and FITC-oligonucleotide (CLSM)” value ([1]; Experiment a, C10 at 10-13mM pre-incubated 40min, then 10µM FITC-ELNG05 30min) was “permeated completely the cells” and the “uptake of antisense (CLSM)” value ([1]; Experiment b, C10 2.6 mM together with 10µM antisense, 30min) was “did not increase the uptake of antisense”. For the same molecule, the “effect on Caco-2 cell adherence” value ([1]; Experiment b, C10 13mM, 30min) was “loss of adherence of Caco-2 cells”, the “staining of cells (CLSM)” value ([1]; Experiment c, C10 8mM with 10µM antisense, 30min) was “only punctate staining, similar to the control” and the “staining of cells (CLSM)” value ([1]; Experiment c, C10 10mM with 10µM antisense, 30min) was “completely stained”. The effect on cells ([1]; Experiment c, C10 between 13mM and 8mM, 30min) was “destruction of cells”.
